This is an account of results in ChEMBL document CHEMBL1146849, “Identification of a lead pharmacophore for the development of potent nuclear receptor modulators as anticancer and X syndrome disease therapeutic agents” (Bioorg Med Chem Lett, 2006).

Structures are written as SMILES. Active and inactive are the calls of the source. The rule behind the calls is not given here.

Assay [1] concerns Androgen receptor (Homo sapiens), P10275 [T878A]. Description: Agonist activity at human androgen receptor T877A mutant relative to control. The class given is functional.
Sequence of Androgen receptor (Homo sapiens), P10275 [T878A] (P10275 whole entry T878A): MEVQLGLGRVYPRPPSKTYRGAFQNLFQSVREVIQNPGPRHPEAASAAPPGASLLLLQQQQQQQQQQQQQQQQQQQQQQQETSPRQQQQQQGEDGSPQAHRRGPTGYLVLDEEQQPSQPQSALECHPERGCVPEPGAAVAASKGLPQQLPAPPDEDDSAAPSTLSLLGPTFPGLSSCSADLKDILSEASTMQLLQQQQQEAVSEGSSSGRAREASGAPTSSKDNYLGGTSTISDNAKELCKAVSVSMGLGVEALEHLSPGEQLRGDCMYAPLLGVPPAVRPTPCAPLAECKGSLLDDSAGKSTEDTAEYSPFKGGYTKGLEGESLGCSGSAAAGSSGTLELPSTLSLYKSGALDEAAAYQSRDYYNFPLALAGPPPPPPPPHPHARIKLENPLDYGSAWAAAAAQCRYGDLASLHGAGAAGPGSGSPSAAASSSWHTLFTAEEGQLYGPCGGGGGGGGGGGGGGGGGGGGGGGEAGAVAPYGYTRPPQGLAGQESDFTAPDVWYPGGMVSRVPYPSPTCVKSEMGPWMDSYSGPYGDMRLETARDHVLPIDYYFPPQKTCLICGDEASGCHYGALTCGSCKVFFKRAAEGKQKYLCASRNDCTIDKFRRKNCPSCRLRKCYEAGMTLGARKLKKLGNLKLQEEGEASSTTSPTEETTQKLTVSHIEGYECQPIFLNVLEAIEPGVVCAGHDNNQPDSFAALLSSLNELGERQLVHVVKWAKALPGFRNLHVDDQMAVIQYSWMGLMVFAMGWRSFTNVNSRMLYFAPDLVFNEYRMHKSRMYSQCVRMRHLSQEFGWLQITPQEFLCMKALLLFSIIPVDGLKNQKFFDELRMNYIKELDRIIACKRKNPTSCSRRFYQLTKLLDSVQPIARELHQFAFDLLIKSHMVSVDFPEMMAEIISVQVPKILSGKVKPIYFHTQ
Assay [2] has as its target T1, Bile acid receptor (Homo sapiens) (UniProt Q96RI1).
T1 sequence (whole entry): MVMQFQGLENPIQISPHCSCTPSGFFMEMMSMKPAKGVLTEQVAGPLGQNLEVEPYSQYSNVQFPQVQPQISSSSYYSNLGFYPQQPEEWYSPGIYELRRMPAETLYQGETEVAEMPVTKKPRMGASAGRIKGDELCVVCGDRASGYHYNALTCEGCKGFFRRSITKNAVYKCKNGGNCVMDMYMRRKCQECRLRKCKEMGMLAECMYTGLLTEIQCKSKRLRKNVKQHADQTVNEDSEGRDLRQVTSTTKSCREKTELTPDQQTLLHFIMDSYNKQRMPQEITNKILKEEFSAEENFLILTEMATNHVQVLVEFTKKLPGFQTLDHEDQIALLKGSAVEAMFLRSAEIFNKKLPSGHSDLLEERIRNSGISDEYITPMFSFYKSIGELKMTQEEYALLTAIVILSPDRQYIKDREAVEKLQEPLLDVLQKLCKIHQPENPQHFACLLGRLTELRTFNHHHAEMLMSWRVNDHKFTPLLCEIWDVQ
Put plainly: Agonist activity at FXR in HepG2 cells by luciferase activity relative to CDCA at 10 uM. The class given is functional, cell-based.

`O=C(c1ccc(C(O)(C(F)(F)F)C(F)(F)F)cc1)N1Cc2ccccc2C[C@H]1CO`: in assay [1], the outcome was inactive.
Regarding `Cc1cc(C)cc(C(=O)N2Cc3ccccc3C[C@H]2CO)c1`, in assay [1], the result was inactive.
Regarding `Cc1ccc(C(=O)N2Cc3ccccc3C[C@H]2CO)cc1F`, in assay [2], the result was Active.
